Laboratory results taken from publication PMC7865655, “Click Conjugation of Boron Dipyrromethene (BODIPY) Fluorophores to EGFR-Targeting Linear and Cyclic Peptides” (Molecules, 2021).

Experiments:
[1] = tested on: extracellular domain of EGFR; settings: cited from earlier work; for affinity for EGFR (in words): binding to domain I of the extracellular domain of EGFR
Excerpt: (§1) We have previously reported the conjugation of BODIPYs to the EGFR-L1 peptide via traditional amidation reactions, and nucleophilic additions to isothiocyanato-functionalized fluorophores. Herein we report the use of click chemistry for conjugation of two EGFR-L1-derived peptides bearing an azide N-terminus (cycloL1.1 and L1.5) to alkynyl-functionalized BODIPYs. […] In previous work, we reported the conjugation of this peptide to a porphyrin [19], phthalocyanine, and BODIPY dyes, using either traditional amidation methodologies or nucleophilic addition to isothiocyanato-functionalized fluorophores. […] In order ...

[2] = tested on: HEp2 cells; experiment: Phototoxicity (~1 J·cm^−2), CellTiter Blue assay; type: cell-based, human; settings: up to 100 µM, light dose ~1 J·cm^−2, CellTiter Blue
Description: In addition to dark toxicity, phototoxicity was assessed for the BODIPYs and their conjugates, under a low light dose of ~1 J·cm^−2 in human carcinoma HEp2 cells using the CTB assay to determine cell viability. Dose-dependent cell survival curves of each compound over the incubation period of 24 h are shown in Figure S20 (Supporting Information). […] Nevertheless, all conjugates are considered to have low phototoxicity in HEp2 cells at the low light dose used in this study.
(§2) For cellular studies, commercially available reagents and culture media were purchased from Life Technologies (Carlsbad, CA, USA) and human carcinoma HEp2 (ATCC CCL-23) cells were purchased from the American Type Culture Collection (ATCC) (Manassas, Virginia, USA). HEp2 cells were cultured and maintained at 37 °C under 5% CO2 and 95% humidity in minimum essential media (MEM) supplemented with 10% fetal bovine serum (FBS) and 1% penicillin-streptomycin (P/S).
HEp2 cells were exposed to working solutions of each compound up to 100 µM (0, 3.125, 6.25, 12.5, 25, 50, and 100 µM) and incubated for 24 h (5% CO2, 95% humidity, 37 °C). The loading medium was removed and the cells were washed with PBS solution. […] Cell viability was assessed as described above.

[3] = tested on: HEp2 cells; experiment: Dark cytotoxicity, CellTiter Blue assay; type: cell-based, human; settings: 24 h incubation, up to 200 µM, darkness
Description: The dark toxicity of all compounds was determined in HEp2 cells at concentrations up to 200 µM, using a CellTiter Blue (CTB) assay to determine cell viability. BODIPYs 1 and 2 (lacking peptide) were included in this study for comparison purposes. […] This might be a result of the presence of the indole group, since it is a known pharmacophore and the basis of many drugs, such as indomethacin [44, 49].
as §2
Stock solutions (32 mM) for compounds 1, 2, 3, 4, and 5 were prepared using 100% DMSO as the solvent. […] Following the incubation period, cell viability was assessed by determining fluorescence intensity at 570/615 nm using a BMG FLUOstar Optima microplate reader (BMG Labtech, Cary, NC, USA). The fluorescence intensity was normalized to 100% for untreated cells and the results are expressed as a percentage of viable cells.

[4] = tested on: HT-29 cells; experiment: Competitive binding of conjugate 5 with cycloL1.1, BODIPY fluorescence; type: cell-based; settings: HT-29 (~78% EGFR expression); conjugate 5 at 50 μM, cyclo(K(N3)larllt) 0.25 to 100 μM, 45 min, 37 °C, PBS; ex 614 / em 648 nm; triplicate
Description: In these studies, HT-29 (~78% EGFR expression), DLD-1 (~40% EGFR expression), and LOVO (~6% EGFR expression) were used.
Cells HT-29 (~78% EGFR) DLD-1 (~37% EGFR) and LOVO (~6% EGFR) with high, moderate, and low EGFR expressions, respectively, were used in these studies. About ten thousand cells of each cell line were coated in a 96 well clear bottom tissue culture black plate and incubated overnight at 37 °C with 5% CO2. […] PBS was used for dilution of compounds. The plate was then covered in aluminum foil and incubated at 37 °C with 5% CO2. After 45 min, each well was washed twice with 100 μL of PBS, and fluorescence was determined with a microplate reader using an excitation wavelength of 614 nm and an emission wavelength of 648 nm. Autofluorescence values were subtracted from each well. A plot of concentrations vs. relative fluorescence was plotted. Results in Figure 4 are expressed as ±S.E.

[5] = cited from earlier work
Excerpt: as §1

Compound	stability in human serum (in words) [5]	affinity for EGFR (in words) [1]	also measured
LARLLT [EGFR-L1, EGFR-targeting peptide ligand reported in 2009 by Song et al, reference compound]			affinity for the extracellular domain of EGFR (in words) ([1]; both in vitro and in vivo): high affinity
CCC1=C(C)C2=C(c3ccc(OCc4cn(CCCC[C@H](N)C(=O)N[C@@H](CC(C)C)C(=O)N[C@@H](C)C(=O)N[C@@H](CCCNC(=N)N)C(=O)N[C@@H](CC(C)C)C(=O)N[C@@H](CC(C)C)C(=O)N[C@H](C(N)=O)[C@@H](C)O)nn4)cc3)c3c(C)c(CC)c(C)n3[B-](F)(F)[N+]2=C1C [Conjugate 3, 1,3,5,7-tetramethyl-2,6-diethyl-8-(4-phenoxymethyltriazole K(N3)LARLLT)-BODIPY]			phototoxicity, ranking in words [2]: least toxic; dark toxicity, ranking in words [3]: least toxic
CC(C)C[C@H]1NC(=O)[C@H](CCCCN=[N+]=[N-])NC(=O)[C@@H]([C@H](C)O)NC(=O)[C@@H](CC(C)C)NC(=O)[C@@H](CC(C)C)NC(=O)[C@@H](CCCNC(=N)N)NC(=O)[C@@H](C)NC1=O [cycloL1.1, cyclo(K(N3)larllt)]	enhanced stability in human serum	high affinity	competitive binding: change of BODIPY fluorescence intensity with added cyclic peptide [4]: able to replace conjugate 5 competitively
K(N3)LARLLT [Conjugate L1.5, linear EGFR-L1-derived azido peptide]	enhanced stability in human serum	increased affinity for EGFR compared to the parent peptide	
